Measured values reported in ChEMBL document CHEMBL1649429, “Novel plasmid-encoded ceftazidime-hydrolyzing CTX-M-53 extended-spectrum beta-lactamase from Salmonella enterica serotypes Westhampton and Senftenberg” (Antimicrob Agents Chemother, 2009).
Values after ≈ are worked out from the molar mass of the structure shown.

Tests used:
[1] = Antimicrobial activity against Salmonella enterica serotype Westhampton isolate 04CEB8273SAL expressing CTX-M-53 gene […]; type: functional, Salmonella enterica subsp. enterica serovar Westhampton
Escherichia coli [2] = assay: Antimicrobial activity against Escherichia coli DH5[alpha] harboring recombinant plasmid carrying CTX-M-53 gene by disk diffusion method; type: functional
Escherichia coli [3] = assay: Antimicrobial activity against Escherichia coli DH10B by disk diffusion method; type: functional; details: K-12 DH10B
Escherichia coli [4] = assay: Antimicrobial activity against Escherichia coli DH10B harboring natural plasmid pWES-1 carrying CTX-M-53 gene […]; type: functional; details: K-12 DH10B
Escherichia coli [5] = assay: Antimicrobial activity against Escherichia coli ATCC 25922 […] in presence of clavulanic acid; type: functional
[6] = Antimicrobial activity against Salmonella enterica serotype Westhampton isolate 04CEB8273SAL expressing CTX-M-53 gene […] in presence of clavulanic acid; type: functional, Salmonella enterica subsp. enterica serovar Westhampton
Escherichia coli [7] = assay: Antimicrobial activity against Escherichia coli DH5[alpha] harboring recombinant plasmid carrying CTX-M-53 gene […] in presence of clavulanic acid; type: functional
Escherichia coli [8] = assay: Antimicrobial activity against Escherichia coli DH10B […] in presence of clavulanic acid; type: functional; details: K-12 DH10B
Escherichia coli [9] = assay: Antimicrobial activity against Escherichia coli DH10B harboring natural plasmid pWES-1 carrying CTX-M-53 gene […] in presence of clavulanic acid; type: functional; details: K-12 DH10B
Escherichia coli [10] = assay: Antimicrobial activity against Escherichia coli DH5[alpha] harboring phagemid pBK-CMV […] in presence of clavulanic acid; type: functional
Escherichia coli [11] = assay: Antimicrobial activity against Escherichia coli ATCC 25922 by disk diffusion method; type: functional
Escherichia coli [12] = assay: Antimicrobial activity against Escherichia coli DH5[alpha] harboring phagemid pBK-CMV […]; type: functional
Escherichia coli [13] = assay: Antimicrobial activity against Escherichia coli DH10B harboring natural plasmid pWES-1 carrying CTX-M-53 gene by Etest in presence of clavulanic acid; type: functional; details: K-12 DH10B
Escherichia coli [14] = assay: Antimicrobial activity against Escherichia coli DH5[alpha] harboring recombinant plasmid carrying CTX-M-53 gene by Etest in presence of clavulanic acid; type: functional
[15] = Antimicrobial activity against Salmonella enterica serotype Westhampton isolate 04CEB8273SAL CTX-M-53 gene by Etest in presence of clavulanic acid; type: functional, Salmonella enterica subsp. enterica serovar Westhampton
Escherichia coli [16] = assay: Antimicrobial activity against Escherichia coli ATCC 25922 by Etest in presence of clavulanic acid; type: functional
Escherichia coli [17] = assay: Antimicrobial activity against Escherichia coli DH10B by Etest in presence of clavulanic acid; type: functional; details: K-12 DH10B
Escherichia coli [18] = assay: Antimicrobial activity against Escherichia coli DH5[alpha] harboring phagemid pBK-CMV by Etest in presence of clavulanic acid; type: functional
Escherichia coli [19] = assay: Antimicrobial activity against Escherichia coli ATCC 25922 by Etest; type: functional
[20] = Antimicrobial activity against Salmonella enterica serotype Westhampton isolate 04CEB8273SAL expressing CTX-M-53 gene by Etest; type: functional, Salmonella enterica subsp. enterica serovar Westhampton
Escherichia coli [21] = assay: Antimicrobial activity against Escherichia coli DH5[alpha] harboring phagemid pBK-CMV by Etest; type: functional
Escherichia coli [22] = assay: Antimicrobial activity against Escherichia coli DH10B by Etest; type: functional; details: K-12 DH10B
Escherichia coli [23] = assay: Antimicrobial activity against Escherichia coli DH10B […] in presence of Tazobactam; type: functional; details: K-12 DH10B
Escherichia coli [24] = assay: Antimicrobial activity against Escherichia coli ATCC 25922 […] in presence of Tazobactam; type: functional
[25] = Antimicrobial activity against Salmonella enterica serotype Westhampton isolate 04CEB8273SAL expressing CTX-M-53 gene […] in presence of Tazobactam; type: functional, Salmonella enterica subsp. enterica serovar Westhampton
Escherichia coli [26] = assay: Antimicrobial activity against Escherichia coli DH5[alpha] harboring recombinant plasmid carrying CTX-M-53 gene […] in presence of Tazobactam; type: functional
Escherichia coli [27] = assay: Antimicrobial activity against Escherichia coli DH10B harboring natural plasmid pWES-1 carrying CTX-M-53 gene […] in presence of Tazobactam; type: functional; details: K-12 DH10B
Escherichia coli [28] = assay: Antimicrobial activity against Escherichia coli DH5[alpha] harboring phagemid pBK-CMV […] in presence of Tazobactam; type: functional

| Compound | MIC [1] [µg/mL] | MIC (Escherichia coli [2]) [µg/mL] | MIC (Escherichia coli [3]) [µg/mL] | MIC (Escherichia coli [4]) [µg/mL] | MIC (Escherichia coli [11]) [µg/mL] | MIC (Escherichia coli [12]) [µg/mL] | other results |
| --- | --- | --- | --- | --- | --- | --- | --- |
| CO/N=C(\C(=O)N[C@@H]1C(=O)N2C(C(=O)[O-])=C(C[N+]3(C)CCCC3)CS[C@H]12)c1csc(N)n1 | > 32 | > 32 | 0.125 (≈ 0.26 µM) | 32 (≈ 66.6 µM) | – | – | – |
| CC1(C)S[C@@H]2[C@H](NC(=O)[C@H](N)c3ccc(O)cc3)C(=O)N2[C@H]1C(=O)O [AMOXICILLIN] | – | – | – | – | – | – | MIC (Escherichia coli [5]): 8 µg/mL; MIC [6]: 8 µg/mL; MIC (Escherichia coli [7]): 8 µg/mL; MIC (Escherichia coli [8]): 8 µg/mL; MIC (Escherichia coli [9]): 8 µg/mL; MIC (Escherichia coli [10]): 4 µg/mL |
| CC1(C)S[C@@H]2[C@H](NC(=O)[C@H](N)c3ccccc3)C(=O)N2[C@H]1C(=O)O [AMPICILLIN] | > 256 | > 256 | 4 (≈ 11.4 µM) | > 256 | 4 (≈ 11.4 µM) | – | – |
| C[C@H]1[C@H](NC(=O)/C(=N\OC(C)(C)C(=O)O)c2csc(N)n2)C(=O)N1S(=O)(=O)O [AZTREONAM] | > 256 | 128 | 0.25 (≈ 0.574 µM) | 128 (≈ 294 µM) | 0.06 (≈ 0.138 µM) | < 0.06 | – |
| CO/N=C(\C(=O)N[C@@H]1C(=O)N2C(C(=O)O)=C(COC(C)=O)CS[C@H]12)c1csc(N)n1 [CEFOTAXIME] | – | – | – | – | – | – | MIC (Escherichia coli [13]): 0.125 µg/mL; MIC (Escherichia coli [14]): 0.06 µg/mL; MIC [15]: 1 µg/mL; MIC (Escherichia coli [16]): 0.06 µg/mL; MIC (Escherichia coli [17]): 0.125 µg/mL; MIC (Escherichia coli [18]): < 0.06 µg/mL |
| CO[C@@]1(NC(=O)Cc2cccs2)C(=O)N2C(C(=O)O)=C(COC(N)=O)CS[C@@H]21 [CEFOXITIN] | 8 (≈ 18.7 µM) | 4 | 4 (≈ 9.36 µM) | 4 (≈ 9.36 µM) | 2 (≈ 4.68 µM) | 2 (≈ 4.68 µM) | – |
| CC(C)(O/N=C(\C(=O)N[C@@H]1C(=O)N2C(C(=O)[O-])=C(C[n+]3ccccc3)CS[C@H]12)c1csc(N)n1)C(=O)O [CEFTAZIDIME] | > 256 | 64 | 0.5 (≈ 0.915 µM) | 64 (≈ 117 µM) | 0.25 (≈ 0.457 µM) | 0.125 (≈ 0.229 µM) | MIC (Escherichia coli [5]): 0.125 µg/mL; MIC [6]: 2 µg/mL; MIC (Escherichia coli [7]): 0.125 µg/mL; MIC (Escherichia coli [8]): 0.5 µg/mL; MIC (Escherichia coli [9]): 0.5 µg/mL; MIC (Escherichia coli [10]): 0.125 µg/mL |
| CO/N=C(\C(=O)N[C@@H]1C(=O)N2C(C(=O)O)=C(CSc3nc(=O)c(O)nn3C)CS[C@H]12)c1csc(N)n1 [CEFTRIAXONE] | – | – | – | – | – | – | MIC (Escherichia coli [19]): 0.06 µg/mL (≈ 0.108 µM); MIC [20]: > 256 µg/mL; MIC (Escherichia coli [21]): < 0.06 µg/mL; MIC (Escherichia coli [22]): 0.125 µg/mL (≈ 0.225 µM) |
| C[C@@H](O)[C@H]1C(=O)N2C(C(=O)O)=C(SCCNC=N)C[C@H]12 [IMIPENEM ANHYDROUS] | 0.5 (≈ 1.67 µM) | – | – | – | – | – | – |
| CCN1CCN(C(=O)N[C@@H](C(=O)N[C@@H]2C(=O)N3[C@@H]2SC(C)(C)[C@@H]3C(=O)O)c2ccccc2)C(=O)C1=O [PIPERACILLIN] | > 256 | > 256 | 2 (≈ 3.86 µM) | > 256 | 2 (≈ 3.86 µM) | 1 (≈ 1.93 µM) | MIC (Escherichia coli [23]): 4 µg/mL; MIC (Escherichia coli [24]): 2 µg/mL; MIC [25]: 16 µg/mL; MIC (Escherichia coli [26]): 2 µg/mL; MIC (Escherichia coli [27]): 4 µg/mL; MIC (Escherichia coli [28]): 1 µg/mL |
| CC1(C)S[C@@H]2[C@H](NC(=O)[C@H](C(=O)O)c3ccsc3)C(=O)N2[C@H]1C(=O)O [TICARCILLIN] | > 256 | > 256 | 8 (≈ 20.8 µM) | > 256 | 8 (≈ 20.8 µM) | 2 (≈ 5.2 µM) | MIC (Escherichia coli [5]): 4 µg/mL; MIC [6]: 128 µg/mL; MIC (Escherichia coli [7]): 32 µg/mL; MIC (Escherichia coli [8]): 2 µg/mL; MIC (Escherichia coli [9]): 32 µg/mL; MIC (Escherichia coli [10]): 2 µg/mL |
